Reference: US5135938A, “Leukotriene antagonists” (SmithKline Beecham Corporation, priority 1990, dated 1992)
Counter-ions that a name gives are not always drawn.

Each compound was assayed against T1, LTD4 induced contraction of guinea pig tracheal spiral strips (Cavia porcellus, UniProt Q2NNR5) (assay: Inhibition of leukotriene (LTD4) induced contraction of guinea pig tracheal tissues in vitro). Conditions: LTD4 concentration-response on guinea pig tracheal strips, 30 minutes pretreatment with test compound; KB from EC30 shift; current average where tested more than once; read-out: In Vitro Log K8 (-log KB, leukotriene antagonist activity) (converted).
T1 construct: Guinea pig (adult male albino Hartley strain) tracheal spiral strips; from tissue; host or cells: guinea pig trachea (adult male albino Hartley strain), spiral strips
T1 sequence (Q2NNR5 1-340): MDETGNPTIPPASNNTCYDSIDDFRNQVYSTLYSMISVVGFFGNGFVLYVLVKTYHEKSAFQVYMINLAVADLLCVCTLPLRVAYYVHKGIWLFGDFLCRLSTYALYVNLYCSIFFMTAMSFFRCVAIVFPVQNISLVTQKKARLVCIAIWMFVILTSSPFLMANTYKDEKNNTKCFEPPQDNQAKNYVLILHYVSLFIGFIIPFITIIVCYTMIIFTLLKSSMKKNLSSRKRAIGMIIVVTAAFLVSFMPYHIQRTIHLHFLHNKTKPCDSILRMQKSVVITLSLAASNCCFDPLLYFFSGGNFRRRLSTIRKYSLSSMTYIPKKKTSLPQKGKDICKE
Format: cell-based
Description: The leukotriene antagonist activity of the compounds of this invention is measured by the ability of the compounds to inhibit the leukotriene induced contraction of guinea pig tracheal tissues in vitro. The following methodology was employed:
In vitro: Guinea pig (adult male albino Hartley strain) tracheal spiral strips of approximate dimensions 2 to 3 mm cross-sectional width an 3.5 cm length were bathed in modified Krebs buffer in jacketed 10 ml tissue bath and continuously aerated with 95% O2 /5% CO2. The tissues were connected via silk suture to force displacement transducers for recording isometric tension. The tissues were equilibrated for 1 hr., pretreated for 15 minutes with meclofenamic acid […] to remove intrinsic prostaglandin responses, and then pretreated for an additional 30 minutes with either the test compound or vehicle control. A cumulative concentration-response curve for LTD4 on triplicate tissues was generated by successive increases in the bath concentration of the LTD4. In order to minimize intertissue variability, the percentage of the maximum response obtained to a reference agonist, carbachol […].
Calculations: The averages of the triplicate LTD4 concentration-response curves both in the presence and absence of the test compound were plotted on log graph paper. The concentration of LTD4 needed to elicit 30% of the contraction elicited by carbachol was measured and defined as the EC30. The -log KB value for the test compound was determined by the following equations: [formula] 2. KB =concentration of test compound/(X-1)
The antagonist activity of representative compounds of this invention is tabulated below in Table I (other data appears in the preparative examples). The -log KB values were calculated from the above test protocol. Where compounds were tested more than once, the -log KB values given herein represent the current average data.

**Q.** With `O=C(O)Cn1nnnc1SC(c1ccccc1CCCCCCCCc1ccccc1)C(O)C(=O)O` (stereo not drawn) [Example 14, 3-[2-(8-phenyloctyl)phenyl]-3-[(1-carboxymethyl-5-tetrazolyl)thio]-2-hydroxypropanoic acid] as the compound, how does the Kb read?
**A.** Its Kb is 100 nM.

**Q.** How did the Kb turn out when `O=C(O)CC(Sc1nnnn1CC(=O)O)c1ccccc1CCCCCCCCc1ccccc1` (stereo not drawn) [Example 7, 3-[2-(8-Phenyloctyl)phenyl]-3-[(1-carboxymethyl-5-tetrazolyl)thio]propanoic acid] was run?
**A.** Its Kb is 501 nM.

**Q.** For `O=C(O)CCCn1nnnc1SC(c1ccccc1CCCCCCCCc1ccccc1)C(O)C(=O)O` (stereo not drawn) [Example 13, 3-[2-(8-phenyloctyl)phenyl]-3-[[1-(3-carboxypropyl)-5-tetrazolyl]thio]-2-hydroxypropanoic acid], which Kb is on record?
**A.** The Kb was 100 nM.

**Q.** How did the Kb turn out when `CCCCCCCCCCCCc1ccccc1C(Sc1nnnn1CCCC(=O)O)C(=O)O` (stereo not drawn) [Example 3, 2-(2-Dodecylphenyl)-2-[[1-(3-carboxypropyl)-5-tetrazolyl]thio]acetic acid] was run?
**A.** Its Kb is 39.8 nM.

**Q.** With `O=C(O)CCCn1nnnc1SC(CC(=O)O)c1ccccc1CCCCCCCCc1ccccc1` (stereo not drawn) [Example 8, 3-[2-(8-Phenyloctyl)phenyl]-3-[[1-(3-carboxypropyl)-5-tetrazolyl]thio]propanoic acid] as the compound, how does the Kb read?
**A.** Its Kb is 1000 nM.

**Q.** With `CCCCCCCCCCCCc1ccccc1C(SCCc1nnn[nH]1)C(=O)O` (stereo not drawn) [Example 12, 2-(2-dodecylphenyl)-2-[2-(tetrazol-5-yl)ethylthio]acetic acid] as the compound, how does the Kb read?
**A.** Its Kb is 316 nM.

**Q.** With `CCCCCCCCCCCCc1ccccc1C(CC(=O)O)Sc1nnnn1CCCC(=O)O` (stereo not drawn) [Example 6, 3-(2-dodecylphenyl)-3-[[1-(3-carboxypropyl)-5-tetrazolyl]thio]propanoicacid] as the compound, how does the Kb read?
**A.** The Kb was 251 nM.

**Q.** Which Kb does the source give for `CCCCCCCCCCCCc1ccccc1C(Sc1nc(C)c(C(=O)O)s1)C(=O)O` (stereo not drawn) [Example 15, 2-(2-Dodecylphenyl)-2-(5-carboxy-4-methyl-2-thiazolylthio)acetic acid] here?
**A.** Its Kb is 200 nM.

**Q.** For `CCCCCCCCCCCCc1ccccc1C(Sc1nnnn1CS(=O)(=O)O)C(=O)O` (stereo not drawn) [Example 4, 2-(2-Dodecylphenyl)-2-[(1-sulfomethyl-5-tetrazolyl)thio]acetic acid ammonium salt hydrate], which Kb is on record?
**A.** The Kb was 398 nM.
